Patent US20200069691A1, “HETEROCYCLIC COMPOUNDS AS HIV PROTEASE INHIBITORS” (Merck Sharp & Dohme Corp., priority 2016, published 2020)

Target: T1, wild-type HIV-1 protease (Human immunodeficiency virus type 1 group M subtype B, UniProt P04585)
T1 construct: Escherichia coli expressed wild-type HIV-1 protease protein
Test: Assay for Inhibition of Microbial Expressed HIV Protease (peptide substrate cleavage, LC-MS/MS readout)
Type: biochemical
Settings: E. coli expressed wild-type HIV-1 protease, mean of at least two independent experiments, read-out: HIV Pr Enzyme HIV1 PR IC50
Outline: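 Cleavage of Val-Ser-Gln-Asn-(β-naphthyl)Ala-Pro-Ile-Val (400 μM) by recombinant HIV-1 protease ([…]) ran 1 h at 30 °C after a 30 min room-temperature inhibitor preincubation in 50 mM sodium acetate pH 5.5. Product peak areas by LC-MS/MS gave inhibition; values average at least two independent runs.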

Row | SMILES | IC50 [nM]
1 | N=C1N[C@](CCCC(F)(F)F)(c2ccc(F)cc2)C(=O)N1Cc1ccc(C(F)(F)F)c(C(=O)N2CCN(c3cccnc3)CC2)c1 [Compound 108, (5R)-5-(4-fluorophenyl)-2-imino-3-{3-[(4-pyridin-3-ylpiperazin-1-yl)carbonyl]-4-(trifluoromethyl)-benzyl}-5-(4,4,4-trifluorobutyl)-imidazolidin-4-one] | 26.1
2 | CC(=O)N1CCN(C(=O)c2cc(CN3C(=N)N[C@](CCCC(F)(F)F)(c4ccc(F)cc4)C3=O)ccc2C(F)(F)F)CC1 [Compound 109, (5R)-3-{3-[(4-acetylpiperazin-1-yl)carbonyl]-4-(trifluoromethyl)-benzyl}-5-(4-fluorophenyl)-2-imino-5-(4,4,4-trifluorobutyl)-imidazolidin-4-one] | 26.5
3 | CC(C)CC[C@]1(c2ccccc2)NC(=N)N([C@@H]2CCS(=O)(=O)c3ccc(C(=O)N4Cc5nccnc5C4)cc32)C1=O [Compound 111, (5R)-3-[(4R)-6-(5,7-dihydro-6H-pyrrolo[3,4-b]pyrazin-6-ylcarbonyl)-1,1-dioxido-3,4-dihydro-2H-thiochromen-4-yl]-2-imino-5-(3-methylbutyl)-5-phenylimidazolidin-4-one] | 28.3
4 | COCC(=O)N1CCN(C(=O)c2cc(CN3C(=N)N[C@](CCCC(F)(F)F)(c4ccc(F)cc4)C3=O)ccc2C(F)(F)F)CC1 [Compound 112, (5R)-5-(4-fluorophenyl)-2-imino-3-[3-{[4-(methoxyacetyl)piperazin-1-yl]carbonyl}-4-(trifluoromethyl)benzyl]-5-(4,4,4-trifluorobutyl)imidazolidin-4-one] | 30.7
5 | N=C1N[C@](CCCC(F)(F)F)(c2ccc(F)cc2)C(=O)N1Cc1ccc(C(F)(F)F)c(C(=O)N2Cc3cnc(-c4cnc(-c5ccc(F)cc5)o4)nc3C2)c1 [Compound 113, (5R)-5-(4-fluorophenyl)-3-[3-({2-[2-(4-fluorophenyl)-1,3-oxazol-5-yl]-5,7-dihydro-6H-pyrrolo[3,4-d]pyrimidin-6-yl}carbonyl)-4-(trifluoromethyl)benzyl]-2-imino-5-(4,4,4-trifluorobutyl)imidazolidin-4-one] | 31.9
6 | N=C1NC(CCC2CC2)(c2cccc(C(F)(F)F)c2)C(=O)N1Cc1ccc(C(F)(F)F)c(C(=O)N2Cc3nccnc3C2)c1 (stereo not shown) [Compound 114, 5-(2-cyclopropylethyl)-3-[3-(5,7-dihydro-6H-pyrrolo[3,4-b]pyrazin-6-ylcarbonyl)-4-(trifluoromethyl)-benzyl]-2-imino-5-[3-(trifluoromethyl)-phenyl]-imidazolidin-4-one] | 34.5
7 | CNC(=O)N1CCN(C(=O)c2cc(CN3C(=N)N[C@](CCCC(F)(F)F)(c4ccc(F)cc4)C3=O)ccc2C(F)(F)F)CC1 [Compound 115, 4-{[5-{[(4R)-4-(4-fluorophenyl)-2-imino-5-oxo-4-(4,4,4-trifluoro-butyl)imidazolidin-1-yl]methyl}-2-(trifluoromethyl)phenyl]carbonyl}-N-methylpiperazine-1-carboxamide] | 36.5
8 | N=C1N[C@](CCCC(F)(F)F)(c2ccc(F)cc2)C(=O)N1[C@@H]1CCCc2ccc(C(=O)N3Cc4nccnc4C3)cc21 [Compound 116, (5R)-3-[(1R)-7-(5,7-dihydro-6H-pyrrolo[3,4-b]pyrazin-6-ylcarbonyl)-1,2,3,4-tetrahydro-naphthalen-1-yl]-5-(4-fluoro-phenyl)-2-imino-5-(4,4,4-trifluorobutyl)imidazolidin-4-one] | 37.8
9 | N=C1N[C@](CCCC(F)(F)F)(c2ccc(F)cc2)C(=O)N1Cc1ccc(C(F)(F)F)c(C(=O)N2Cc3cnc(-c4ccc(-n5nccn5)cc4)nc3C2)c1 [Compound 117, (5R)-5-(4-fluorophenyl)-2-imino-3-[3-({2-[4-(2H-1,2,3-triazol-2-yl)phenyl]-5,7-dihydro-6H-pyrrolo[3,4-d]pyrimidin-6-yl}carbonyl)-4-(trifluoromethyl)-benzyl]-5-(4,4,4-trifluorobutyl)-imidazolidin-4-one] | 38.5
10 | N=C1N[C@](CCCC(F)(F)F)(c2ccc(F)cc2)C(=O)N1Cc1ccc(C(F)(F)F)c(C(=O)N2CCN(c3ccccc3)CC2)c1 [Compound 119, (5R)-5-(4-fluorophenyl)-2-imino-3-{3-[(4-phenylpiperazin-1-yl)carbonyl]-4-(trifluoromethyl)-benzyl}-5-(4,4,4-trifluorobutyl)-imidazolidin-4-one] | 42.1
11 | N=C1N[C@](CCCC(F)(F)F)(c2ccc(F)cc2)C(=O)N1Cc1ccc(C(F)(F)F)c(C(=O)N2Cc3cnc(-c4cc(F)cc(F)c4)nc3C2)c1 [Compound 121, (5R)-3-[3-{[2-(3,5-difluorophenyl)-5,7-dihydro-6H-pyrrolo[3,4-d]pyrimidin-6-yl]carbonyl}-4-(trifluoromethyl)benzyl]-5-(4-fluorophenyl)-2-imino-5-(4,4,4-trifluorobutyl)imidazolidin-4-one] | 44.3
12 | N=C1N[C@](CCCC(F)(F)F)(c2ccc(F)cc2)C(=O)N1Cc1ccc(C(F)(F)F)c(C(=O)N2CCn3nc(C4CC4)nc3C2)c1 [Compound 122, (5R)-3-{3-[(2-cyclopropyl-5,6-dihydro[1,2,4]triazolo[1,5-a]pyrazin-7(8H)-yl)carbonyl]-4-(trifluoromethyl)benzyl}-5-(4-fluorophenyl)-2-imino-5-(4,4,4-trifluorobutyl)imidazolidin-4-one] | 48.1
13 | CC(C)CC(c1ccc(C(F)(F)F)c(C(=O)N2CCn3c(nnc3C(F)(F)F)C2)c1)N1C(=N)N[C@](C[C@@H]2CCOC2)(c2ccc(F)cc2)C1=O (stereo partly drawn) [Compound 123, (5R)-5-(4-fluorophenyl)-2-imino-3-{3-methyl-1-[4-(trifluoromethyl)-3-{[3-(trifluoromethyl)-5,6-dihydro-[1,2,4]triazolo[4,3-a]pyrazin-7(8H)-yl]carbonyl}phenyl]butyl}-5-[(3R)-tetrahydrofuran-3-ylmethyl]-imidazolidin-4-one] | 55.7
14 | CC(C)CC[C@]1(c2ccccc2)NC(=N)N([C@@H]2CCCc3ccc(C(=O)N4Cc5nccnc5C4)cc32)C1=O [Compound 124, (5R)-3-[(1R)-7-(5,7-dihydro-6H-pyrrolo[3,4-b]pyrazin-6-ylcarbonyl)-1,2,3,4-tetrahydro-naphthalen-1-yl]-2-imino-5-(3-methylbutyl)-5-phenylimidazolidin-4-one] | 57
15 | N=C1NC(CCC2CC2)(c2ccc(C(F)(F)F)cc2)C(=O)N1Cc1ccc(C(F)(F)F)c(C(=O)N2CCn3c(nnc3C(F)(F)F)C2)c1 (stereo not shown) [Compound 125, 5-(2-cyclopropylethyl)-2-imino-5-[4-(trifluoromethyl)phenyl]-3-[4-(trifluoromethyl)-3-{[3-(trifluoromethyl)-5,6-dihydro-[1,2,4]triazolo[4,3-a]pyrazin-7(8H)-yl]carbonyl}benzyl] imidazolidin-4-one] | 57.2
16 | CC(C)CC[C@]1(c2ccccc2)NC(=N)N(Cc2ccc(S(C)(=O)=O)c(C(=O)N3Cc4nccnc4C3)c2)C1=O [Compound 126, (5R)-3-[3-(5,7-dihydro-6H-pyrrolo[3,4-b]pyrazin-6-ylcarbonyl)-4-(methylsulfonyl)-benzyl]-2-imino-5-(3-methylbutyl)-5-phenylimidazolidin-4-one] | 60.2
17 | N=C1N[C@](CCCC(F)(F)F)(c2ccc(F)cc2)C(=O)N1Cc1ccc(C(F)(F)F)c(C(=O)N2CCN(CC(F)(F)F)CC2)c1 [Compound 127, (5R)-5-(4-fluorophenyl)-2-imino-5-(4,4,4-trifluorobutyl)-3-[3-{[4-(2,2,2-trifluoroethyl)piperazin-1-yl]carbonyl}-4-(trifluoromethyl)-benzyl]imidazolidin-4-one] | 65.1
18 | N=C1N[C@](C[C@@H]2CCOC2)(c2ccccc2)C(=O)N1Cc1ccc(C(F)(F)F)c(C(=O)N2Cc3nccnc3C2)c1 [Compound 128, (5R)-3-[3-(5,7-dihydro-6H-pyrrolo[3,4-b]pyrazin-6-ylcarbonyl)-4-(trifluoromethyl)-benzyl]-2-imino-5-phenyl-5-[(3R)-tetrahydrofuran-3-ylmethyl]-imidazolidin-4-one] | 67.9
19 | N=C1N[C@](CCC2CC2)(c2ccc(F)cc2)C(=O)N1[C@@H]1CCCc2ccc(C(=O)N3Cc4nccnc4C3)cc21 [Compound 129, (5R)-5-(2-cyclopropylethyl)-3-[(1R)-7-(5,7-dihydro-6H-pyrrolo[3,4-b]pyrazin-6-ylcarbonyl)-1,2,3,4-tetrahydronaphthalen-1-yl]-5-(4-fluorophenyl)-2-iminoimidazolidin-4-one] | 70.8
20 | N=C1NC(CCC2CC2)(c2ccc(C(F)(F)F)cc2)C(=O)N1Cc1ccc(C(F)(F)F)c(C(=O)N2CCn3c(nnc3C(F)(F)F)C2)c1 (stereo not shown) [Compound 131, 5-(2-cyclopropylethyl)-2-imino-5-[4-(trifluoromethyl)phenyl]-3-[4-(trifluoromethyl)-3-{[3-(trifluoromethyl)-5,6-dihydro-[1,2,4]triazolo[4,3-a]pyrazin-7(8H)-yl]carbonyl}benzyl] imidazolidin-4-one] | 84.9
21 | N=C1N[C@](CCCC(F)(F)F)(c2ccc(F)cc2)C(=O)N1Cc1ccc(C(F)(F)F)c(C(=O)N2CCN3c4ccccc4CC3C2)c1 (stereo partly drawn) [Compound 132, (5R)-5-(4-fluorophenyl)-2-imino-3-[3-(3,4,10,10a-tetrahydropyrazino-[1,2-a]indol-2(1H)-ylcarbonyl)-4-(trifluoromethyl)benzyl]-5-(4,4,4-trifluorobutyl)imidazolidin-4-one] | 86.6
22 | N=C1N[C@](CCCC(F)(F)F)(c2ccc(F)cc2)C(=O)N1Cc1ccc(C(F)(F)F)c(C(=O)N2Cc3cnc(-c4cnn(-c5cccc(Cl)c5)c4)nc3C2)c1 [Compound 133, (5R)-3-[3-({2-[1-(3-chlorophenyl)-1H-pyrazol-4-yl]-5,7-dihydro-6H-pyrrolo[3,4-d]pyrimidin-6-yl}carbonyl)-4-(trifluoromethyl)-benzyl]-5-(4-fluorophenyl)-2-imino-5-(4,4,4-trifluorobutyl)imidazolidin-4-one] | 86.8
